From US20240082274A1, “FUNGAL COMPOUND COMPOSITIONS AND METHODS FOR MODULATING INFLAMMATION” (TURTLE BEAR HOLDINGS, LLC, priority 2021, published 2024)

Key:
JNK3 (MAPK10) = target: T1, JNK3 (MAPK10) (Homo sapiens, UniProt P53779); assay: MAPK binding affinity screen (DiscoveRx); details: component alone
T1 construct: purchased DiscoveRx

MAPK = MAPK binding screen, general statements; details: low ng concentrations
Excerpt: It was identified that many combination formulations of tryptamines, He/PEP/Erinacine C, and niacin can interact with several mitogen-activated protein kinases (MAPKs) involved with brain health and can even provide synergistic benefits (Tables 7-8).
It was surprising and unexpected that such dilute psilocin at low ng concentrations produced a synergistic effect on MAPK binding when combined with other components because these low concentrations had no effect on MAPK binding when used alone. Therefore, one would have expected these low concentrations to be ineffective. The low concentrations also overcome the pharmacodynamic issues faced when using high concentrations of psilocin.

PC12 cells = assay: Neurite outgrowth in rat PC12 cells; format: cell-based; details: 6 days
Excerpt: Rat PC12 cells are a cell line derived from rat pheochromocytoma and are an immortalised cell line similar to the primary culture of fetal neurons. These cells are relatively easy to passage and culture and have some features of neurons, which makes them useful in the study of nerve physiology and pharmacology.

[1] = target: T2, JAK1 (JH1domain-catalytic) (Homo sapiens, UniProt P23458); assay: MAPK binding affinity screen (DiscoveRx); details: component alone
T2 construct: (JH1domain-; purchased DiscoveRx
T2 sequence (P23458 875-1153 limits assumed): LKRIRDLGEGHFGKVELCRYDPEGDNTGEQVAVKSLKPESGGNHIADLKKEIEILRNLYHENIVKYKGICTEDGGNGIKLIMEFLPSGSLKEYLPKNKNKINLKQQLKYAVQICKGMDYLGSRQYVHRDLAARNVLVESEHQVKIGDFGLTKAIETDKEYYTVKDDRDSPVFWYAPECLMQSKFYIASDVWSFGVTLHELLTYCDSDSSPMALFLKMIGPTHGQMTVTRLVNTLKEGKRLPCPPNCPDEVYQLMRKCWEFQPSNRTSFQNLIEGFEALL

ROCK2 = target: T3, ROCK2 (Homo sapiens, UniProt O75116); assay: MAPK binding affinity screen (DiscoveRx); details: component alone, row of combination at 62.5 μg/mL
T3 construct: purchased DiscoveRx
T3 sequence (O75116 whole entry): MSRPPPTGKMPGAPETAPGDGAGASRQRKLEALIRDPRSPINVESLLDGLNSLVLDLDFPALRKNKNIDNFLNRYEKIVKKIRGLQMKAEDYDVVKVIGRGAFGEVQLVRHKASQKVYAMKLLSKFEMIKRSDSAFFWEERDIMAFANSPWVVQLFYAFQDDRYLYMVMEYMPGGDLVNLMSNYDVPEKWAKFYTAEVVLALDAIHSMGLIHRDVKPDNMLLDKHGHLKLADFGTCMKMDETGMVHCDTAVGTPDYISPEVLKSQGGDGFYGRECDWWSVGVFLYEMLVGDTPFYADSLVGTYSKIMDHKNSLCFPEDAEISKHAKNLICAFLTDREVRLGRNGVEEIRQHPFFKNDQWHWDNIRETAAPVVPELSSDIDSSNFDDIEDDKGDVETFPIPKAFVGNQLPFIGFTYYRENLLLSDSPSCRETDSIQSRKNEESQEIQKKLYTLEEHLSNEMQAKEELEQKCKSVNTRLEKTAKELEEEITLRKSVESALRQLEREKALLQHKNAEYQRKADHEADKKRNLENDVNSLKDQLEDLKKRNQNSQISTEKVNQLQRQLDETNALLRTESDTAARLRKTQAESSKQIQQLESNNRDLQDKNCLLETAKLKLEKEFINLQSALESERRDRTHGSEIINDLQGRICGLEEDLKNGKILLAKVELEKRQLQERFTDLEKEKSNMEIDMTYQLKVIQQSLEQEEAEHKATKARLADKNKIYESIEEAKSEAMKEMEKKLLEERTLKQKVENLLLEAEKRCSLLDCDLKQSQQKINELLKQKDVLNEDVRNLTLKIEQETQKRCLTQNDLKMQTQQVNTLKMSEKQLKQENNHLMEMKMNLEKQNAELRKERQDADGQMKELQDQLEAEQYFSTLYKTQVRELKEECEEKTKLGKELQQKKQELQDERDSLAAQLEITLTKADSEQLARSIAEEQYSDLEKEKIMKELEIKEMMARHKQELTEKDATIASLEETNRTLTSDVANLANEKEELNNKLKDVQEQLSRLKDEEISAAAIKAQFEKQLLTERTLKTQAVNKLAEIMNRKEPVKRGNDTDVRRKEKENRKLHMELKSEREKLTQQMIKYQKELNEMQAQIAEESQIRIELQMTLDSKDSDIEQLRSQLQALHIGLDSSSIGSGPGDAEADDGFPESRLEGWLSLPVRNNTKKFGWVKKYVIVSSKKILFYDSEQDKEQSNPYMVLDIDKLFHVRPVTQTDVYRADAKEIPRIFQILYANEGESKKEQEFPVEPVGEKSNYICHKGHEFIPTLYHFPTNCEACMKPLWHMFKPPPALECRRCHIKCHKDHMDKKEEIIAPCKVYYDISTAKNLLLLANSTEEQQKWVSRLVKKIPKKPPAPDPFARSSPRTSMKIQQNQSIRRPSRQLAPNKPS

TRKA (NTRK1) = target: T4, TRKA (NTRK1) (Homo sapiens, UniProt P04629); assay: MAPK binding affinity screen (DiscoveRx); details: component alone
T4 construct: purchased DiscoveRx
T4 sequence (P04629 33-796): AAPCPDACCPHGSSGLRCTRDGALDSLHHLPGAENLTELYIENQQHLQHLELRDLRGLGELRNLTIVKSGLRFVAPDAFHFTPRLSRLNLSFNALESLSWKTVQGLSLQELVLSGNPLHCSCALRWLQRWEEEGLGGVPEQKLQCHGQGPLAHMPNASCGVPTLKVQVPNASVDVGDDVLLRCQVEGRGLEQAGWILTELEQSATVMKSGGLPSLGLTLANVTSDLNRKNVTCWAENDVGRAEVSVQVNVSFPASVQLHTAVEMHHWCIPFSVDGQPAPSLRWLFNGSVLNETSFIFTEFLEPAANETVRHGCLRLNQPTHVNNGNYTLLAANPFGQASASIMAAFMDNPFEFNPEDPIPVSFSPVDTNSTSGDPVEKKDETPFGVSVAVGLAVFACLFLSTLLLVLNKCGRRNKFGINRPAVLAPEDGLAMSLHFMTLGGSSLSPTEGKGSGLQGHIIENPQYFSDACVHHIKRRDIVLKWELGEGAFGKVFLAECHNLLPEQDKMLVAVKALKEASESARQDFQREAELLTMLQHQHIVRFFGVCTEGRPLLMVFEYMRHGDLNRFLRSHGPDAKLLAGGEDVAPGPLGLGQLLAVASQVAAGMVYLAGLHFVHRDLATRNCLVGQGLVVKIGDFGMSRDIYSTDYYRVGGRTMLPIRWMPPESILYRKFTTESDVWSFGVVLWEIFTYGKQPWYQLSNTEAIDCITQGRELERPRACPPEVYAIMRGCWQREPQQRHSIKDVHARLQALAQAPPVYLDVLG

TRKB (NTRK2) = target: T5, TRKB (NTRK2) (Homo sapiens, UniProt Q16620); assay: MAPK binding affinity screen (DiscoveRx); details: component alone, row of combination at 5 μg/mL
T5 construct: purchased DiscoveRx
T5 sequence (Q16620 32-822): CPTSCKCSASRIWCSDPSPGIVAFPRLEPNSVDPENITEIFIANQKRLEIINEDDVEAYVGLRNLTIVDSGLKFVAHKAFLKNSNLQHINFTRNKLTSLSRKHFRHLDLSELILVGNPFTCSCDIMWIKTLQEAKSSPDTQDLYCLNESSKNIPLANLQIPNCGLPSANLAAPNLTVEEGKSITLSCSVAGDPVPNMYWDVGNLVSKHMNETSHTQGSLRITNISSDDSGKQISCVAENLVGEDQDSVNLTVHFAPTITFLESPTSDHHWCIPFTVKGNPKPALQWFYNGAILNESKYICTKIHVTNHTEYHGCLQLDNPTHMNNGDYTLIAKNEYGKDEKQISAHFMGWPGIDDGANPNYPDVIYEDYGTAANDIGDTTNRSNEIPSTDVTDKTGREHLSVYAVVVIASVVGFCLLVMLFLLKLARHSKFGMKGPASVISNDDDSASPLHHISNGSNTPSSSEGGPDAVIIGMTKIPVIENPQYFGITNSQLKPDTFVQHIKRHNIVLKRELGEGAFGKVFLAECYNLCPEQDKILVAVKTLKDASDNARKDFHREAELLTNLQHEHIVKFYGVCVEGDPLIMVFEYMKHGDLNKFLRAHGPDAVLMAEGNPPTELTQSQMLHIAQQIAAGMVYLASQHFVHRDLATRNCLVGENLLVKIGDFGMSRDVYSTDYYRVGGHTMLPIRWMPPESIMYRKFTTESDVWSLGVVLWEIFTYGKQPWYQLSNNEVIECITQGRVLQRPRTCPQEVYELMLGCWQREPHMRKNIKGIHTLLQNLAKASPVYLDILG

[2] = cited from earlier work
p38-alpha (MAPK14) = target: T6, p38-alpha (MAPK14) (Homo sapiens, UniProt Q16539); assay: MAPK binding affinity screen (DiscoveRx); details: component alone
T6 construct: purchased DiscoveRx
T6 sequence (Q16539 whole entry): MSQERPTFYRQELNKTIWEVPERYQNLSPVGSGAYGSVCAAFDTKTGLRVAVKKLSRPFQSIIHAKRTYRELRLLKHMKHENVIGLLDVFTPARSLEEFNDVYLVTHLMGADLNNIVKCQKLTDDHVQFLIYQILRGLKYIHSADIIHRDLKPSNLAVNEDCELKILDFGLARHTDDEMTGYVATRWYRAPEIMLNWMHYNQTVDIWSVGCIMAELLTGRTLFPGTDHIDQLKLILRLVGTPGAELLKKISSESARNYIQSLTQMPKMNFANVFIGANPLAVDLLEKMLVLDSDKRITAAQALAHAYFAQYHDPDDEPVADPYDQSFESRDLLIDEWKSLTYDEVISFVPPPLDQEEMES

TNF-α = TNF-α expression in LPS-induced human PBMCs; format: cell-based; details: 100 ng/mL LPS, individual components, FIG. 13
IL-10 = IL-10 expression in human PBMCs under standard non-inflammatory conditions; format: cell-based; details: at multiple concentrations
Procedure: In a separate experiment, human peripheral blood mononuclear cells (PBMCs) were treated with different concentrations of norbaeocystin, norpsilocin, and vehicle control under standard non-inflammatory conditions, and IL-10 expression was measured.

MAO-A = target: T7, MAO-A (Homo sapiens, UniProt P21397); details: Herraiz et al., 2010; cited from earlier work
T7 sequence (P21397 1-527): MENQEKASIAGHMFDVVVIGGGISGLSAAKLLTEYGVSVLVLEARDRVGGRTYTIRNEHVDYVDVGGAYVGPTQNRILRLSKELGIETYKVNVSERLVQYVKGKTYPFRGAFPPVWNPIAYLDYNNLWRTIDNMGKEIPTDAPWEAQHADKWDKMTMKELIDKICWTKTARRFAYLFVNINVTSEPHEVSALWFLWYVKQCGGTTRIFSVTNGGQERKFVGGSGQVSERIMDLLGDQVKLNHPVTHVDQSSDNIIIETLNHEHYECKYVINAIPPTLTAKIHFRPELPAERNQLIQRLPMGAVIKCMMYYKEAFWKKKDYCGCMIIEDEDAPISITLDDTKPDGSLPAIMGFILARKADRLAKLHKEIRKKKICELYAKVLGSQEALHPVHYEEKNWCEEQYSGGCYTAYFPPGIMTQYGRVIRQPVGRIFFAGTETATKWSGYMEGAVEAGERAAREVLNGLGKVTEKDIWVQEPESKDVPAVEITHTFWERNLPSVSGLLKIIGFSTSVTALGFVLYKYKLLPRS

MAO-B = target: T8, MAO-B (Homo sapiens, UniProt P27338); details: Herraiz et al., 2010; cited from earlier work
T8 sequence (P27338 1-520): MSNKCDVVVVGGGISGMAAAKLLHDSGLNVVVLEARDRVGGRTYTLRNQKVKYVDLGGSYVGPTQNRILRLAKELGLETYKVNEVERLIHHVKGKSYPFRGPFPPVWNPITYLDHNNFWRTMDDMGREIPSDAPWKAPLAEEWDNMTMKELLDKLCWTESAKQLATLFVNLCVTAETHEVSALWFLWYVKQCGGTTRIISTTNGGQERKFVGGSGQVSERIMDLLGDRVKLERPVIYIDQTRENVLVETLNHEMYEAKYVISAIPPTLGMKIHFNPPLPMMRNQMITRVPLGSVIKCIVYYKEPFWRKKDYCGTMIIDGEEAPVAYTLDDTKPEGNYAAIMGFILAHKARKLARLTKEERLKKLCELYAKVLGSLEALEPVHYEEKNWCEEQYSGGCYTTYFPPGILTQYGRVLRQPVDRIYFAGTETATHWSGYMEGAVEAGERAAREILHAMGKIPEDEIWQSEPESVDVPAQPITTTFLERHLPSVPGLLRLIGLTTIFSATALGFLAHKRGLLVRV

IL-6 = details: human PBMCs, 100 ng/mL LPS; 0.43 μg/mL; FIG. 12
Procedure: Human PBMCs were treated with 100 ng/mL LPS to induce inflammatory conditions.

[3] = Flanagan and Nichols, 2018; cited from earlier work
5-HT2A receptor = 5-HT2A receptor (Homo sapiens, UniProt P28223); details: Flanagan and Nichols, 2018; cited from earlier work
5-HT2A receptor, sequence (P28223 whole entry): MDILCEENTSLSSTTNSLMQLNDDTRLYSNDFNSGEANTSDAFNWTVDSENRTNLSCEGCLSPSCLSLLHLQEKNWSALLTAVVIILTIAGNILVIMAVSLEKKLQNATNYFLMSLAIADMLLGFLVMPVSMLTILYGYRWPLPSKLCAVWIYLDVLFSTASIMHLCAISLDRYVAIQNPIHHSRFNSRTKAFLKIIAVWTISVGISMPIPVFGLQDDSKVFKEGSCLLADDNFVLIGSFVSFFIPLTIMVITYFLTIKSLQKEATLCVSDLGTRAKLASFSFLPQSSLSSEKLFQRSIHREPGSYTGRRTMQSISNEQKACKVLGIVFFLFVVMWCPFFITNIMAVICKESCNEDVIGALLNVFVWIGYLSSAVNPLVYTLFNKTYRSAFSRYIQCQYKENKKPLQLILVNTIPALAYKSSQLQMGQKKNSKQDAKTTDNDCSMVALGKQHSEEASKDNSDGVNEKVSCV

[4] = row of combination at 0.6, 0.6 ng/mL
[5] = row of combination at 3, 0.2 ng/mL
[6] = row of combination at 125 μg/mL
[7] = row of combination at 2.5 μg/mL
[8] = row of combination at 250 μg/mL
[9] = row of combination at 16, 16 ng/mL

T1 sequence (P53779 whole entry): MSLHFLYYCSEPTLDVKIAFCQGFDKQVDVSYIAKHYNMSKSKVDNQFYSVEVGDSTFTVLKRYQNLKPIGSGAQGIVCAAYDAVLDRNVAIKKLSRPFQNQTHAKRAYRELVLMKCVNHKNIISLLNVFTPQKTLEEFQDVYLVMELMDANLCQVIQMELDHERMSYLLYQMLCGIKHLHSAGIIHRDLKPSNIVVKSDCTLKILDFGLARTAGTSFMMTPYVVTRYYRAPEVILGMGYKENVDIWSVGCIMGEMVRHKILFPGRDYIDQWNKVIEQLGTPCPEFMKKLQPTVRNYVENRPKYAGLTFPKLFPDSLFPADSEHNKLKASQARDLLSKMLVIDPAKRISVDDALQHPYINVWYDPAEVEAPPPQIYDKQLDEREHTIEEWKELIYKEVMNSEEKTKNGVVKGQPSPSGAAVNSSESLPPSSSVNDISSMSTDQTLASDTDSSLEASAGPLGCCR

Compound: CN(C)CCc1c[nH]c2cccc(O)c12 [Psilocin, 4-hydroxy-N,N-dimethyltryptamine]
- MAPK binding affinity value of individual component (JNK3 (MAPK10); [4]): 1
- MAPK binding affinity value of individual component (JNK3 (MAPK10); [5]): 2
- effect on MAPK binding when used alone (MAPK): no effect
- highest mean neurite outgrowth, of vehicle control (PC12 cells; 0.043 μg/mL): 168%
- MAPK binding affinity value of individual component ([1]; row of combination at 30, 1.8 ng/mL): 1

Compound: CNCCc1c[nH]c2cccc(OP(=O)(O)O)c12 [Baeo, 4-phosphoryloxy-N-methyltryptamine]
- MAPK binding affinity value of individual component (ROCK2): 0
- MAPK binding affinity value of individual component (TRKA (NTRK1); combinations at 250 μg/mL): 6
- MAPK binding affinity value of individual component (TRKA (NTRK1); [6]): 3
- MAPK binding affinity value of individual component (JNK3 (MAPK10); [6]): 8
- MAPK binding affinity value of individual component (TRKB (NTRK2)): 12
- MAPK binding affinity value of individual component [1, 7]: 1
- hallucinogenic effect after consumption ([2]; 4 mg, anecdotal, Gartz 1991): gentle hallucinogenic experience
- hallucinogenic effect after oral consumption ([2]; 10 mg and 20 mg, case studies): did not produce any hallucinogenic effects
- MAPK binding affinity value of individual component (p38-alpha (MAPK14); combinations at 2.5 μg/mL): 2
- MAPK binding affinity value of individual component (p38-alpha (MAPK14); combinations at 5 μg/mL): 9
- MAPK binding affinity value of individual component (p38-alpha (MAPK14); combinations at 10 μg/mL): 1
- MAPK binding affinity value of individual component (p38-alpha (MAPK14); combinations at 250 μg/mL): 1

Compound: CNCCc1c[nH]c2cccc(O)c12 [Norpsilo, 4-hydroxy-N-methyl-tryptamine]
- anti-inflammatory effect (TNF-α expression) (TNF-α): have anti-inflammatory effects at certain concentrations
- MAPK binding affinity value of individual component (JNK3 (MAPK10); row of combination at 5 μg/mL): 19
- expression of the anti-inflammatory cytokine IL-10 (IL-10): significantly upregulate
- MAPK binding affinity value of individual component [1, 8]: 0
- MAPK binding affinity value of individual component (p38-alpha (MAPK14); combinations at 2.5 μg/mL): 15
- MAPK binding affinity value of individual component (p38-alpha (MAPK14); combinations at 5 μg/mL): 1
- MAPK binding affinity value of individual component (p38-alpha (MAPK14); combinations at 10 μg/mL): 21
- MAPK binding affinity value of individual component (p38-alpha (MAPK14); combinations at 250 μg/mL): 21

Compound: COc1ccc2c3c([nH]c2c1)C(C)=NCC3 [harmaline, 3,4-dihydro-7-methoxy-1-methyl-carboline]
- MAO-A inhibition (MAO-A): specific MAO-A inhibitors
- MAO-B inhibition (MAO-B): poor inhibitors of MAO-B

Compound: O=C(O)c1cccnc1 [Niacin, nicotinic acid, reference compound]
- anti-inflammatory effect (TNF-α expression) (TNF-α): have anti-inflammatory effects at certain concentrations
- MAPK binding affinity value of individual component (JNK3 (MAPK10); [4]): 0
- highest mean neurite outgrowth, of vehicle control (PC12 cells; 0.35 μg/mL): 112%
- MAPK binding affinity value of individual component [1, 8]: 6
- MAPK binding affinity value of individual component [1, 9]: 5

Compound: CN(C)CCc1c[nH]c2ccccc12 [DMT, N,N-dimethyltryptamine]
- MAPK binding affinity value of individual component [1, 9]: 5

Compound: NCCc1c[nH]c2cccc(OP(=O)(O)O)c12 [Norbaeo, 4-phosphoryloxy-tryptamine]
- MAPK binding affinity value of individual component (TRKA (NTRK1); combinations at 250 μg/mL): 3
- MAPK binding affinity value of individual component (JNK3 (MAPK10); row of combination at 5 μg/mL): 4
- MAPK binding affinity value of individual component (JNK3 (MAPK10); [6]): 4
- MAPK binding affinity value of individual component (TRKB (NTRK2)): 0
- expression of the anti-inflammatory cytokine IL-10 (IL-10): significantly upregulate
- MAPK binding affinity value of individual component [1, 7]: 3
- MAPK binding affinity value of individual component ([1]; rows of combinations at 62.5 μg/mL): 3
- IL-6 expression (IL-6): significantly reduced
- MAPK binding affinity value of individual component (p38-alpha (MAPK14); combinations at 2.5 μg/mL): 22
- MAPK binding affinity value of individual component (p38-alpha (MAPK14); combinations at 5 μg/mL): 12
- MAPK binding affinity value of individual component (p38-alpha (MAPK14); combinations at 10 μg/mL): 17

Compound: CC(C)C1=C2C3=CC=C(CO)[C@H]4O[C@H]5[C@@H](OC[C@@H](O)[C@@H]5O)O[C@@H]4[C@]3(C)CC[C@@]2(C)CC1 [Erinacine C]
- MAPK binding affinity value of individual component (JNK3 (MAPK10); [5]): 6

Compound: COc1cc(C[C@@H](C)N)c(OC)cc1I [(R)-2,5-dimethoxy-4-iodoamphetamine]
- inflammation in the lungs [3]: prevent and reverse inflammation in the lungs
- 5-HT2A receptor activation (5-HT2A receptor): activate the 5-HT2A receptor

Compound: COc1ccc2c(c1)[nH]c1c(C)nccc12 [Harmine, 7-methyoxy-1-methyl-carboline]
- MAO-A inhibition (MAO-A): specific MAO-A inhibitors
- MAO-B inhibition (MAO-B): poor inhibitors of MAO-B
